Consider three molecules from patent US8367328B2, “Method for synthesizing DNA” (Takara Bio Inc., priority 1998, dated 2013).

For this assay, the system named is ExTaq DNA Polymerase. The experiment in a line: PCR with ExTaq DNA Polymerase in the presence of cationic complexes. To be noted: for Amount of amplified DNA relative to No Addition (=1), ExTaq: 100 pg E. coli JM109 genomic DNA, primers Eco1/Eco2, 30 cycles 98°C 5 s–68°C 1 min, FM-BIO 100. It counts as biochemical. An excerpt: Using hexaamminecobalt (III) chloride ([Co(NH3)6]Cl3) (manufactured by Sigma), tris(ethylenediamine)cobalt (III) chloride ([Co(C2H8N2)3]Cl3) (manufactured by Aldrich), or tris(ethylenediamine)rhodium (III) trichloride•trihydrate ([Rh(C2H8N2)3]Cl3.3H2O) (manufactured by Aldrich), the effects on the amplification reaction by various kinds of DNA polymerases were examined. As the DNA polymerases, TaKaRa Taq DNA Polymerase (hereinafter referred to as “Taq DNA Polymerase” manufactured by Takara Shuzo Co., Ltd.), Pyrobest DNA Polymerase (manufactured by Takara Shuzo Co., Ltd.) and Ex Taq DNA Polymerase (manufactured by Takara Shuzo Co., Ltd.) were used.
A reaction mixture comprising Escherichia coli JM109 genomic DNA as a template, primers Eco1 and Eco2 as a primer pair, and DNA polymerase was prepared, and PCR was carried out. The compositions of the reaction mixture for each enzyme are as follows.
a reaction mixture comprising 5 μl of 10-fold concentrated buffer for TaKaRa ExTaq DNA Polymerase (manufactured by Takara Shuzo Co., Ltd.), 0.2 mM each of dATP, dCTP, dGTP and dTTP, 100 pg of Escherichia coli JM109 genomic DNA, 1.25 U of TaKaRa EX-Taq DNA Polymerase, and 10 pmol each of primers Eco1 and Eco2 (a final volume being 50 μl).
Further, an aqueous solution of the above-mentioned complexes each so as to have a final concentration of 50 μM, 100 μM, or 200 μM was added to the above reaction mixture.
The reaction was carried out in Fast mode by using TaKaRa PCR Thermal Cycler Personal (manufactured by Takara Shuzo Co., Ltd.). The reaction conditions are as follows. When using Taq DNA Polymerase and Pyrobest DNA Polymerase, the reaction in 30 cycles was carried out for each of these reaction mixtures, wherein one cycle of reaction comprises a process consisting of 98° C., 5 seconds—68° C., 2 minutes, and when using ExTaq DNA Polymerase, the reaction in 30 cycles was carried out for each of these reaction mixtures, wherein one cycle of reaction comprises a process consisting of 98° C., 5 seconds—68° C., 1 minute. After the termination of the reaction, 5 μl of the resulting reaction mixture was subjected to electrophoresis on 2% agarose gel containing ethidium bromide in an amount of 0.00005%. The gel after the electrophoresis was subjected to ultraviolet irradiation to visualize the band ascribed to the amplified product, whereby an amplified fragment was confirmed. The amount of amplified DNA was numerically explained by using a fluorescent image analyzer FM-BIO 100 (manufactured by Takara Shuzo Co., Ltd.). […]
After the termination of the reaction, 5 μL of the resulting reaction mixture was subjected to electrophoresis on 2% agarose gel containing ethidium bromide in an amount of 0.00005%. The gel after the electrophoresis was subjected to ultraviolet irradiation to visualize the band ascribed to the amplified product, whereby an amplified fragment was confirmed.
The DNA polymerases used and the composition for the reaction mixture were similar to those in Example 17, except for the cationic complex, where in cases of using Taq DNA Polymerase and Pyrobest DNA Polymerase, hexaamminecobalt (III) chloride was added so as to have a final concentration of 100 μM, or in a case of using ExTaq DNA Polymerase, hexaamminecobalt (III) chloride was added so as to have a final concentration of 50 μM, respectively. Further, the amount of template DNA was added so as to be 1 pg, 5 pg, 10 pg, 100 pg, or 1 ng, respectively.
The reaction was carried out in Fast mode by using TaKaRa PCR Thermal Cycler Personal. The reaction conditions are as follows. When using Taq DNA Polymerase and Pyrobest DNA Polymerase, the reaction in 30 cycles was carried out, wherein one cycle of reaction comprises a process consisting of 98° C., 5 seconds—68° C., 2 minutes. When using ExTaq DNA Polymerase, the reaction in 30 cycles was carried out, wherein one cycle of reaction comprises a process consisting of 98° C., 5 seconds—68° C., 1 minute. […]

`NCCN.NCCN.NCCN.[Cl-].[Cl-].[Cl-].[Co+3]` [[Co(H2NCH2CH2NH2)3]Cl3, tris(ethylenediamine)cobalt (III) chloride]: the “Amount of amplified DNA relative to No Addition (=1), ExTaq” value by setting is: (complex 50 μM) 2.0; (complex 100 μM) 2.0.

For the molecule `N.N.N.N.N.N.[Cl-].[Cl-].[Cl-].[Co+3]` [[Co(NH3)6]Cl3, hexaamminecobalt (III) chloride], the “Amount of amplified DNA relative to No Addition (=1), ExTaq” value is, setting by setting: (complex 50 μM) 1.9; (complex 100 μM) 1.9. Also, the “Amplification with one-half the usual enzyme amount versus usual amount without addition” value (ExTaq 0.625 U + 50 μM complex vs 1.25 U without addition) is recorded as “almost the same level”. Moreover, the “Primer amount with which a fragment can still be amplified” value (ExTaq, 50 μM complex, primers 2–20 pmol tested, no amplification without addition) amounted to 2.5 pmol. Also, the “Amount of template DNA at which amplification was still possible” value (ExTaq, 50 μM complex, templates 1 pg–1 ng tested, no amplification at 1 pg without addition) stood at 1 pg. Besides, the “Amplification in low-magnesium reaction mixture” value (ExTaq, 1.25 mM magnesium chloride (usual 2 mM), 10 μM complex, no amplification without addition) is recorded as “allowed to amplify”.

Regarding `NCCN.NCCN.NCCN.O.O.O.[Cl][Rh]([Cl])[Cl]` [[Rh(H2NCH2CH2NH2)3]Cl3, tris(ethylenediamine)rhodium (III) trichloride•trihydrate], the “Amount of amplified DNA relative to No Addition (=1), ExTaq” value came out at 1.3 (complex 50 μM), 1.5 (complex 100 μM) and 1.7 (complex 200 μM).
